This test has as its system TSP-1 null mice. As to the kind of experiment: Corneal fluorescein staining in murine model of Sjögren's syndrome. The test is classed as in vivo. As to conditions: 5 μL eye drops twice daily, 30 μM quercetin and/or 0.5 μM I3O in PBS. The protocol: Mice. Thrombospondin (TSP)-1 null mice (C57BL/6 background), were bred in-house in a pathogen-free facility at Boston University School of Medicine, Boston, Mass. All experiments were conducted in accordance with institutional guidelines and ARVO Statement of the Use of Animals in Ophthalmic and Vision Research.
Corneal Fluorescein Staining. Sodium fluorescein (1%), 1 μl was applied to the cornea of mice under anesthesia. Three minutes later, eyes were flushed with PBS to remove excess fluorescein, and corneal staining was evaluated and photographed with a slit lamp biomicroscope (Humphrey-Zeiss, Dublin, Calif.) using a cobalt blue light. Punctate staining was recorded using a standardized National Eye Institute grading system of 0 to 3 for each of the five areas of the cornea (Lemp, 1995, CLAO J. 21:221-232).
TSP-1 deficient (null) mice (12 wk old) were treated with eyedrops twice daily for a period of two weeks. The 5 μL eye drops were either PBS as a control or 0.5 μM I3O and 30 μM quercetin in PBS, 0.5 μM I3O alone in PBS, or 30 μM quercetin alone in PBS. […] Clinical signs of dry eye disease, including effect on the corneal surface and peroxidase levels in tears, were measured at baseline (prior to initiating treatment) and at the end of week 1 and effect on the corneal surface was assayed again at the end of week 2. […]

As for `O=c1c(O)c(-c2ccc(O)c(O)c2)oc2cc(O)cc(O)c12` [quercetin], the “corneal surface / corneal fluorescein score, week 1” value (week 1, FIG. 5) was “significant improvement in the corneal surface”.

As for `O=C1Nc2ccccc2/C1=C1/Nc2ccccc2/C1=N\O` [Heterodimer I3O, indirubin-3′-oxime], the “corneal surface / corneal fluorescein score, week 2” value (week 2, FIG. 5) is reported as “small improvement in corneal fluorescein score at week 2, but it was not significant”.

Values taken from patent US11007177B2, “Compositions comprising a combination of a substituted flavonoid and a substituted indole for treating ocular diseases” (University of Macau, priority 2015, dated 2021).
